From patent US20260042731A1, “(2,4-DICHLOROPHENOXY)ACETIC ACID ANALOGS” (CORTEVA AGRISCIENCE LLC, priority 2022, published 2026)
Like-named read-outs stand apart in the source and are kept apart here.

How the values were obtained:
[1] = Volatility of compounds measured by thermogravimetric analysis (TGA); format: physicochemical
Velvetleaf (ABUTH) = assay: Greenhouse post-emergence mixture trials, percent visual control; format: in vivo; settings: Abutilon theophrasti, post-emergence, 504 h, ABUTH, 21 DAA; for pest or weed control at 150 g/ha: Mesotrione 150 g ai or ae/ha alone
[2] = test system: Common Lambsquarters (CHEAL); assay: as above; format: in vivo; settings: CHEAL, 21 DAA
[3] = test system: glyphosate resistant Conyza canadensis (L.) (ERICA), horseweed; assay: Postemergence herbicide evaluation, growth of Conyza canadensis (ERICA); format: in vivo; settings: Erigeron canadensis, post-emergence, percent reduction in plant size vs untreated control, read-out: Ave. ERICA; for pest or weed control at 280 g/ha: 280 g ae/ha; for pest or weed control at 560 g/ha: 560 g ae/ha
[4] = test system: Amaranthus rudis (AMATA), tall water hemp; assay: Postemergence herbicide evaluation, growth of Amaranthus rudis (AMATA); format: in vivo; settings: Amaranthus tuberculatus, post-emergence, percent reduction in plant size vs untreated control, read-out: Ave. AMATA; for pest or weed control at 280 g/ha: 280 g ae/ha; for pest or weed control at 560 g/ha: 560 g ae/ha
[5] = test system: weeds ABUTH, AMATA, AMBEL, CHEAL, ERICA; assay: Postemergence herbicide evaluation, overall average % weed control across ABUTH, AMATA, AMBEL, CHEAL and ERICA; format: in vivo; settings: post-emergence, average over five weeds, read-out: Overall Ave % Weed Control; for pest or weed control at 280 g/ha: 280 g ae/ha; for pest or weed control at 560 g/ha: 560 g ae/ha
[6] = test system: Ambrosia artemisiifolia (AMBEL), common ragweed; assay: Postemergence herbicide evaluation, growth of Ambrosia artemisiifolia (AMBEL); format: in vivo; settings: Ambrosia artemisiifolia, post-emergence, percent reduction in plant size vs untreated control, read-out: AVE. AMBEL; for pest or weed control at 280 g/ha: 280 g ae/ha; for pest or weed control at 560 g/ha: 560 g ae/ha
[7] = test system: Abutilon theophrasti (ABUTH), velvetleaf; assay: Postemergence herbicide evaluation, growth of Abutilon theophrasti (ABUTH); format: in vivo; settings: Abutilon theophrasti, post-emergence, percent reduction in plant size vs untreated control, read-out: AVE. ABUTH; for pest or weed control at 280 g/ha: 280 g ae/ha; for pest or weed control at 560 g/ha: 560 g ae/ha
[8] = test system: Chenopodium album (CHEAL), common lambsquarters; assay: Postemergence herbicide evaluation, growth of Chenopodium album (CHEAL); format: in vivo; settings: Chenopodium album, post-emergence, percent reduction in plant size vs untreated control, read-out: Ave. CHEAL; for pest or weed control at 280 g/ha: 280 g ae/ha; for pest or weed control at 560 g/ha: 560 g ae/ha

SMILES: O=C(COc1ccc(Cl)cc1Cl)ONC(=O)c1ccc(Cl)cc1 [Compound A28]
- TGA Data (rate of weight loss, volatility) [1]: 0.3455 µg/min

SMILES: O=C(COc1ccc(Cl)cc1Cl)O/N=C/c1cccs1 [Compound A23]
- TGA Data (rate of weight loss, volatility) [1]: 0.3728 µg/min

SMILES: O=C(COc1ccc(Cl)cc1Cl)OCOC(=O)COc1ccc(Cl)cc1Cl [Compound B15, Methylene bis(2-(2,4-dichlorophenoxy)acetate)]
- TGA Data (rate of weight loss, volatility) [1]: 0.3 µg/min

SMILES: O=C(COc1ccc(Cl)cc1Cl)ONC(=O)c1cccnc1 [Compound A19]
- TGA Data (rate of weight loss, volatility) [1]: 0.348 µg/min

SMILES: O=C(COc1ccc(Cl)cc1Cl)Oc1ccncn1 [Compound E8]
- TGA Data (rate of weight loss, volatility) [1]: 0.7322 µg/min

SMILES: O=C(COc1ccc(Cl)cc1Cl)Oc1ccncc1 [Compound E15]
- TGA Data (rate of weight loss, volatility) [1]: 0.03683 µg/min

SMILES: CS(=O)(=O)c1ccc(C(=O)C2C(=O)CCCC2=O)c([N+](=O)[O-])c1 [Mesotrione, 2-[4-(methylsulfonyl)-2-nitrobenzoyl]-1,3-cyclohexanedione, reference compound]
- pest or weed control at 75 g/ha (Velvetleaf (ABUTH); Trial 2 Trt 25, B2 0 g ae/ha, Mesotrione 75 g ai or ae/ha alone): 100%
- pest or weed control at 150 g/ha (Velvetleaf (ABUTH); Trial 2 Trt 28, B2 0 g ae/ha): 100%
- pest or weed control at 150 g/ha (Velvetleaf (ABUTH); Trial Bridge 1 Trt 10, D10 0 g ae/ha): 100%
- pest or weed control at 75 g/ha ([2]; Chenopodium album, post-emergence, 504 h, Trial 2 Trt 25: B2 0 g ae/ha, Mesotrione 75 g ai or ae/ha alone): 100%
- pest or weed control at 150 g/ha ([2]; Chenopodium album, post-emergence, 504 h, Trial 2 Trt 28: B2 0 g ae/ha, Mesotrione 150 g ai or ae/ha alone): 100%
- % Control ([2]; Trial Bridge 1, mixing partner alone (D10 at 0 g ae/ha), Mesotrione 150 g ai or ae/ha): 100%

SMILES: Cc1nc2ccccc2n1C(=O)COc1ccc(Cl)cc1Cl [Compound D12]
- pest or weed control at 280 g/ha ([3]; 168 h, 7 DAA): 85%
- pest or weed control at 560 g/ha ([3]; 168 h, 7 DAA): 85%
- pest or weed control at 280 g/ha ([3]; 336 h, 14 DAA): 98.5%
- pest or weed control at 560 g/ha ([3]; 336 h, 14 DAA): 99.5%
- pest or weed control at 280 g/ha ([3]; 504 h, 21 DAA): 100%
- pest or weed control at 560 g/ha ([3]; 504 h, 21 DAA): 100%
- pest or weed control at 280 g/ha ([4]; 168 h, 7 DAA): 62.5%
- pest or weed control at 560 g/ha ([4]; 168 h, 7 DAA): 77.5%
- pest or weed control at 280 g/ha ([4]; 336 h, 14 DAA): 87.5%
- pest or weed control at 560 g/ha ([4]; 336 h, 14 DAA): 92.5%
- pest or weed control at 280 g/ha ([4]; 504 h, 21 DAA): 65%
- pest or weed control at 560 g/ha ([4]; 504 h, 21 DAA): 77.5%
- pest or weed control at 280 g/ha ([5]; 168 h, 7 DAA): 70%
- pest or weed control at 560 g/ha ([5]; 168 h, 7 DAA): 75.5%
- pest or weed control at 280 g/ha ([5]; 336 h, 14 DAA): 83.9%
- pest or weed control at 560 g/ha ([5]; 336 h, 14 DAA): 90.6%
- pest or weed control at 280 g/ha ([5]; 504 h, 21 DAA): 84.5%
- pest or weed control at 560 g/ha ([5]; 504 h, 21 DAA): 94%
- pest or weed control at 280 g/ha ([6]; 168 h, 7 DAA): 75%
- pest or weed control at 560 g/ha ([6]; 168 h, 7 DAA): 72.5%
- pest or weed control at 280 g/ha ([6]; 336 h, 14 DAA): 67.5%
- pest or weed control at 560 g/ha ([6]; 336 h, 14 DAA): 77.5%
- pest or weed control at 280 g/ha ([6]; 504 h, 21 DAA): 100%
- pest or weed control at 560 g/ha ([6]; 504 h, 21 DAA): 100%
- pest or weed control at 280 g/ha ([7]; 168 h, 7 DAA): 47.5%
- pest or weed control at 560 g/ha ([7]; 168 h, 7 DAA): 67.5%
- pest or weed control at 280 g/ha ([7]; 336 h, 14 DAA): 67.5%
- pest or weed control at 560 g/ha ([7]; 336 h, 14 DAA): 85%
- pest or weed control at 280 g/ha ([7]; 504 h, 21 DAA): 67.5%
- pest or weed control at 560 g/ha ([7]; 504 h, 21 DAA): 96.5%
- pest or weed control at 280 g/ha ([8]; 168 h, 7 DAA): 80%
- pest or weed control at 560 g/ha ([8]; 168 h, 7 DAA): 75%
- pest or weed control at 280 g/ha ([8]; 336 h, 14 DAA): 98.5%
- pest or weed control at 560 g/ha ([8]; 336 h, 14 DAA): 98.5%
- pest or weed control at 280 g/ha ([8]; 504 h, 21 DAA): 90%
- pest or weed control at 560 g/ha ([8]; 504 h, 21 DAA): 96%
